Measured values reported in EP0185961A2, “1-Phenyl-imidazole-5-carboxylic acid derivatives, process for their preparation and their use as growth regulators” (HOECHST AKTIENGESELLSCHAFT, priority 1984, dated 1986).

Legend:
Roggen = assay: Growth inhibition in cereals, greenhouse tray test, sprayed at 3-leaf stage; type: in vivo; settings: % of growth increment of untreated controls, read-out: Wuchsshemmung in % bei Roggen; for pest or weed control at 1250 g/ha: 1,25 kg/ha; for pest or weed control at 2500 g/ha: 2,5 kg/ha
From the text: (§1) In Schalenversuchen im Gewächshaus werden junge Getreidepflanzen (Weizen, Gerste, Roggen) im 3-Blattstadium mit erfindungsgemäßen Verbindungen in verschiedenen Wirkstoffkonzentrationen (kg/ha) tropfnaß gespritzt. […]

Weizen = assay: as above; type: in vivo; settings: % of growth increment of untreated controls (100% = growth standstill), read-out: Wuchsshemmung in % bei Weizen; for pest or weed control at 1250 g/ha: 1,25 kg/ha; for pest or weed control at 2500 g/ha: 2,5 kg/ha
From the text: as §1

Reispflanzen [1] = settings: in vivo
From the text: (§4) Reispflanzen werden in Kleinparzellen (2 m x 2 m) angezogen und im Stadium der maximalen Bestockung mit erfindungsgemäßen Verbindungen behandelt. Die Substanzen werden sowohl durch Spritzung appliziert als auch in das Wasser gegeben.
(§5) 3 Wochen nach der Behandlung wird bei allen Pflanzen der Zuwachs gemessen und die Wuchshemmung in % des Zuwachses der Kontrollpflanzen berechnet. Es wird außerdem auf eine mögliche phytotoxische Wirkung der Verbindungen geachtet.
(§6) Die Wuchshemmung wird als prozentualer Wert ermittelt, wobei 100% den Stillstand des Wachstums und 0% ein Wachstum entsprechend dem der unbehandelten Kontrollpflanzen bedeuten.

[2] = tested on: Getreidepflanzen (Weizen, Gerste, Roggen); assay: Phytotoxic effect observed in the cereal growth inhibition test; type: in vivo; settings: cereals; one cell for 2,5 and 1,25 kg/ha
From the text: (§2) In Schalenversuchen im Gewächshaus werden junge Getreidepflanzen (Weizen, Gerste, Roggen) im 3-Blattstadium mit erfindungsgemäßen Verbindungen in verschiedenen Wirkstoffkonzentrationen (kg/ha) tropfnaß gespritzt.
(§3) Es wird außerdem die phytotoxische Wirkung der Verbindung beobachtet.

Gerste = assay: Growth inhibition in cereals, greenhouse tray test, sprayed at 3-leaf stage; type: in vivo; settings: % of growth increment of untreated controls, read-out: Wuchsshemmung in % bei Gerste; for pest or weed control at 1250 g/ha: 1,25 kg/ha; for pest or weed control at 2500 g/ha: 2,5 kg/ha
From the text: as §2, §3

Sojabohnen [3] = settings: in vivo
From the text: (§7) Etwa 10 cm große Sojabohnen werden mit den Wirkstoffzubereitungen tropfnaß bespritzt. Nach 3 Wochen wird bonitiert.
as §6

Reispflanzen [4] = assay: Growth inhibition in paddy rice, small plots; settings: Oryza sativa, 504 h, read-out: Wuchsshemmung (%)
From the text: as §4, §5, §6

Sojabohnen [5] = assay: Growth inhibition in soybeans; settings: Glycine max, 504 h, read-out: Wuchsshemmung (%)
From the text: as §7, §6

Row | Structure (SMILES) | pest or weed control at 1250 g/ha (Roggen) [%] | pest or weed control at 2500 g/ha (Roggen) [%] | pest or weed control at 1250 g/ha (Weizen) [%] | pest or weed control at 2500 g/ha (Weizen) [%] | Phytotox. Wirkung (Reispflanzen [1]) | Phytotox. Wirkung [2] | pest or weed control at 1250 g/ha (Gerste) [%] | pest or weed control at 2500 g/ha (Gerste) [%] | Phytotox. Wirkung (Sojabohnen [3]) | pest or weed control at 620 g/ha (Reispflanzen [4]) [%] | pest or weed control at 1250 g/ha (Reispflanzen [4]) [%] | pest or weed control at 2500 g/ha (Sojabohnen [5]) [%]
1 | CCc1cccc(CC)c1-n1cncc1C(=O)ON=C(C)C1CC1 [Beispiel 45] | 15 | 22 | 11 | 19 | keine Schäden | keine Schäden | 15 | 32 | keine Schäden | 13 | 19 | 18
2 | CCc1cccc(CC)c1-n1cncc1C(=O)ON=C1CCCCC1 [Beispiel 51] | 20 | 27 | 16 | 25 | keine Schäden | keine Schäden | 18 | 37 | keine Schäden | 19 | 26 | 24
3 | CCOC(=O)CSC(=O)c1cncn1-c1c(CC)cccc1CC [Beispiel 54] | 18 | 24 | 13 | 22 | keine Schäden | keine Schäden | 19 | 33 | keine Schäden | 14 | 21 | 19
4 | CCc1cccc(CC)c1-n1cncc1C(=O)NCC#N [Beispiel 57] | 17 | 23 | 12 | 23 | keine Schäden | keine Schäden | 18 | 31 | keine Schäden | 13 | 20 | 18
5 | CCc1cccc(CC)c1-n1cncc1C(=O)NCC(=O)O [Beispiel 60] | 17 | 24 | 13 | 23 | keine Schäden | keine Schäden | 19 | 32 | keine Schäden | 13 | 21 | 21
6 | CCc1cccc(CC)c1-n1cncc1C(=O)NCC(=O)OC [Beispiel 61] | 18 | 25 | 13 | 23 | keine Schäden | keine Schäden | 19 | 31 | keine Schäden | 13 | 20 | 17
7 | CCc1cccc(CC)c1-n1cncc1C(=O)NN [Beispiel 65] | 18 | 24 | 14 | 21 | keine Schäden | keine Schäden | 19 | 29 | keine Schäden | 14 | 21 | 17
8 | CCc1cccc(CC)c1-n1cncc1C(=O)NN(C)C [Beispiel 66] | 18 | 25 | 14 | 22 | keine Schäden | keine Schäden | 19 | 31 | keine Schäden | 12 | 21 | 18
9 | CCc1cccc(CC)c1-n1cncc1C(=O)NO [Beispiel 68] | 21 | 27 | 20 | 24 | keine Schäden | keine Schäden | 21 | 34 | keine Schäden | 18 | 25 | 26
10 | CCc1cccc(CC)c1-n1cncc1C(=O)NNC(N)=O [Beispiel 70] | 21 | 25 | 12 | 22 | keine Schäden | keine Schäden | 18 | 27 | keine Schäden | 14 | 21 | 19
11 | CCc1cccc(CC)c1-n1cncc1C(=O)n1cncn1 [Beispiel 76] | 15 | 23 | 13 | 21 | keine Schäden | keine Schäden | 17 | 27 | keine Schäden | 14 | 19 | 21
12 | CCc1cccc(CC)c1-n1cncc1COCc1ccccc1C [Beispiel 95] | 15 | 22 | 14 | 19 | keine Schäden | keine Schäden | 17 | 25 | keine Schäden | 14 | 18 | 20
13 | CCc1cccc(CC)c1-n1cncc1C(=O)NS(=O)(=O)c1ccccc1Cl [Beispiel 103] | 16 | 27 | 16 | 23 | keine Schäden | keine Schäden | 19 | 29 | keine Schäden | 15 | 21 | 22
14 | CCc1cccc(CC)c1-n1cncc1C(=O)OC(=O)c1cncn1-c1c(CC)cccc1CC [Beispiel 115] | 24 | 31 | 14 | 24 | keine Schäden | keine Schäden | 19 | 38 | keine Schäden | 19 | 28 | 15
